According to patent US20100041632A1, “USES OF THE CARBOXY-AMIDO-TRIAZOLE COMPOUNDS AND SALTS THEREOF” (priority 2006, published 2010):

What was measured:
Assay type in all cases: in vivo
Kunming mice = assay: Croton oil-induced ear edema mouse model
Method: Male Kunming mice, weighted 18-22 g, were randomly divided to the following experiment groups, 20 mice/group:
Negative control: normal saline was injected (ig), 0.1 ml/10 g/day for 3 consecutive days.
Vehicle control: PEG400 was injected (ig), […] for 3 consecutive days.
Positive control: Dexamethasone (0.2 mg/ml) was injected (ip), 0.1 ml/10 g/day for 3 consecutive days.
Test group: CAI or its analogs (2 mg/ml, analogs are as described in example 5) was administered (ig), 0.1 ml/10 g/day for 3 consecutive days.
8 hours after the last administration, 20 μl of croton oil solution (2%) was applied to the right ear of each mouse. The left ear remained untreated as control. The animals were sacrificed 4 hours later, and a piece of tissue was punched from the same position of the treated and untreated ear. The tissues were weighed on a 0.1 mg balance. The difference in weight between the two pieces of tissue of each mouse was taken as a measure of swelling intensity.

rats = assay: Granulomatous tissue formation (implanted tampon)
Method: 44 rats (160 g) were randomly divided into 4 groups (11 rats/group). Animals were slightly anaesthetized by ether. After sterilization, the groin was cut bilaterally. A sterile tampon (50 mg) was implanted (sc). On the same day, the following treatments were administered: N.S. (i.p., control group), 0.067 mg/kg/day dexamethasone (i.p., positive control), 20 mg/kg/day CAI (p.o., dissolved in PEG 400, test group) and 0.067 mg/kg/day dexamethasone+20 mg/kg/day CAI (p.o., dissolved in PEG 400, combination group). After 7 days administration, the animals were sacrificed. The cotton was removed. The granulomatous tissue was dried at 60° C. oven for 12 hr and weighed. Increment in the dry weight of the tissue was taken as measure of granuloma formation. The Increment was adjusted for respective body weight, and the mean value for each group was calculated.

Wistar rats = assay: Adjuvant induced arthritis (AA) of rat, paw oedema
Method: Negative control (AA+NS): […] positive control (AA+Dex): dexamethasone, i.p., 0.067 mg/kg/day. Vehicle control (AA+PEG400): […] CAI (AA+CAI): 20 mg/ml CAI, ig, 0.1 ml/100 g/day (20 mg/kg/day). Combination (AA+CAI+Dex): dexamethasone, 0.067 mg/kg/day (i.p.) plus CAI 20 mg/kg/day (p.o.). Normal volumes of left and right hind paw were measured before adjuvant injection. […]

**Q.** Which results are given for `NC(=O)c1nnn(Cc2cc(Cl)c(C(=O)c3ccc(Cl)cc3)c(Cl)c2)c1N` [CAI, 5-amino-1-[3,5-dichloro-4-(4-chlorobenzoyl chloride)benzyl]-1H-1,2,3-triazole-4-carboxamide]?
**A.** Swelling intensity (mg) mean ± std (Kunming mice; ear weight difference 4 hours after 2% croton oil, CAI/analogs 2 mg/ml ig, dexamethasone 0.2 mg/ml ip, 0.1 ml/10 g/day, 3 days): 7.8 ± 0.2 mg; Anti-inflammatory effect in ear edema model (in words) (Kunming mice; mouse, in vivo): obvious anti-inflammatory effects; granulomatous tissue:bady weight ratio (mean ± std) (rats; 7 days, CAI 20 mg/kg/day p.o., dexamethasone 0.067 mg/kg/day i.p.): 0.060 ± 0.00479; Effect on granulomatous tissue formation (in words) (rats; two-way ANOVA): potent in inhibiting granulomatous tissue formation; Primary paw oedema (%), mean ± std (Wistar rats; 1 d, CAI 20 mg/kg/day ig, Dex 0.067 mg/kg/day i.p.): 116.2 ± 17.6 %; Primary paw oedema (%), mean ± std (Wistar rats; 2 d): 131.9 ± 23.0 %; Primary paw oedema (%), mean ± std (Wistar rats; 5 d): 122.4 ± 12.4 %; Primary paw oedema (%), mean ± std (Wistar rats; 8 d): 121.6 ± 21.6 %; Primary paw oedema (%), mean ± std (Wistar rats; 11 d): 129.3 ± 23.5 %; Primary paw oedema (%), mean ± std (Wistar rats; 14 d): 112.0 ± 15.7 %; Secondary paw oedema (%), mean ± std (Wistar rats; 14 d, right hind paw): 2.3 ± 1.0 %; Primary paw oedema (%), mean ± std (Wistar rats; 17 d): 104.3 ± 20.7 %; Secondary paw oedema (%), mean ± std (Wistar rats; 17 d): 3.1 ± 0.8%; Primary paw oedema (%), mean ± std (Wistar rats; 20 d): 92.2 ± 16.0 %; Secondary paw oedema (%), mean ± std (Wistar rats; 20 d): 8.8 ± 3.2 %; Primary paw oedema (%), mean ± std (Wistar rats; 23 d): 92.4 ± 15.4 %; Secondary paw oedema (%), mean ± std (Wistar rats; 23 d): 8.6 ± 2.3 %; Primary paw oedema (%), mean ± std (Wistar rats; 26 d): 88.6 ± 13.4 %; Secondary paw oedema (%), mean ± std (Wistar rats; 26 d): 8.6 ± 1.9 %; Primary paw oedema (%), mean ± std (Wistar rats; 29 d): 86.9 ± 23.1 %; Secondary paw oedema (%), mean ± std (Wistar rats; 29 d): 6.5 ± 2.7 %; Effect on paw oedema of AA rats (in words) (Wistar rats; compared with control group, two-way ANOVA): inhibits primary and secondary paw oedema
